From US20230028658A1, “EXPANDED DOSAGE REGIMENS FOR INTEGRIN INHIBITORS” (Pliant Therapeutics, Inc., priority 2021, published 2023)
Read-outs that look alike come from different tables or passages of the source.

Tests used:
healthy mice = assay: pSMAD3/SMAD3 in lung tissue and BALF of healthy mice; assay type: in vivo; settings: 4 days of compound 5 treatment, FIG. 4B
Source text: (§1) It has been previously shown that inhibition of αvβ6 in the lung can be detected though measurement of phospho-SMAD (pSMAD) in alveolar macrophages. Alveolar macrophages are known to operate in a unique niche in the lung, distinct from interstitial macrophages. SMAD3 is a downstream target of the active TGF-β cytokine binding its receptor and in alveolar macrophages it is phosphorylated by homoeostatic levels of TGF-β. Accordingly, it was desirable to know whether inhibition of TGF-β activation using the disclosed compounds would result in reduced SMAD2 and SMAD3 phosphorylation.
Mice (C57BL/6) were divided into healthy (n=15), vehicle-treated (n=15), and test article-treated (n=15 per dose) groups. […] […] […] […] […] […] […] Samples were prepared for analysis either directly from lung tissue, or by bronchoalveolar lavage, which washes out the bronchiolar and alveolar space with saline to produce a bronchoalveolar lavage fluid (BALF) in which 80-90% of cells are alveolar macrophages.
FIG. 4A is a graph of PSMAD3/SMAD3 in lung tissue from healthy mice administered PBS vehicle and varying levels of compound 5 for 4 days. FIG. 4B is a graph of PSMAD3/SMAD3 in BALF drawn from the same healthy mice administered PBS vehicle and varying levels of compound 5 for 4 days.

bleomycin-treated mice = assay: Murine bleomycin model; assay type: in vivo, Mice (C57BL/6)
Source text: as §1
Mice (C57BL/6) were divided into healthy (n=15), vehicle-treated (n=15), and test article-treated (n=15 per dose) groups. Mice in the vehicle and test article-treated groups were administered 3 U/kg of bleomycin (Teva Pharmaceuticals; North Wales, Pa.) via oropharyngeal aspiration while under anesthesia on day 0. Healthy animals were administered water in a similar fashion. Starting on day 7, mice in the control group were administered PBS vehicle, 130 μL, by oral gavage, BID for 14 days. Also starting on day 7, mice in the test group were administered compound 5 in PBS by oral gavage, BID for 14 days, at relative dosages of 1×, 2.5× and 5×. […] From day 14 through day 21, 9 of the 15 mice were administered ^2H2O for labeling. All mice were sacrificed on day 21 and tissues were collected. Samples were prepared for analysis either directly from lung tissue, or by bronchoalveolar lavage, which washes out the bronchiolar and alveolar space with saline to produce a bronchoalveolar lavage fluid (BALF) in which 80-90% of cells are alveolar macrophages.

lung Col1a1 expression = assay: Precision cut lung slices from human IPF explants, 3 days, Col1a1 expression; assay type: cell-based; settings: human IPF PCLS, 3G9 ≥400 ng/mL, compound 5 179 nM, ALK5 inhibitor 1 μM, FIG. 6C
Source text: Explanted lung tissue was obtained from human IPF subjects and inflated with agarose as described in the preceding examples. Biopsy cores were obtained from the agarose-inflated lung tissue. The biopsy cores were subjected to precision slicing to obtain several hundred μm thick. Individual slices were distributed in a multiwell culture plate and cultured for […] under control (DMSO) and test compound conditions. The viability of the slices over the course of culturing was confirmed by WST-1 assay of mitochondrial activity.

[1] = Single dose pharmacokinetics (SAD), Example B14; assay type: in vivo, human; settings: for half-life / Cmax / AUC(0-t) / Tmax: human, oral; for half-life: plasma total drug; for half-life / Cmax / AUC(0-t): geometric mean; for Cmax / AUC(0-t) / Tmax: plasma; for AUC(0-t): read-out: AUC0-24, ng × h/mL; for Tmax: median
Source text: Accordingly, a study was designed to assess the PK of Compound 5 after a single dose and following a 6-day course of doses, at levels exceeding the dosages used in preceding Examples B12 and B13. This study was designed to assess at these higher doses aspects of the single-dose and steady-state pharmacokinetics of Compound 5.
(§2) This study was a single-center, randomized, double-blind, ascending dose, placebo-controlled study in healthy participants. Each cohort included 10 participants (8 active, 2 placebo). Study participants received single ascending doses (SAD) of Compound 5 of 120, 160, 240, 320, 480, and 640 mg and multiple ascending doses (MAD) of Compound 5 of 80, 120, 160, 240, and 320 mg. Two cohorts of participants at 160 mg were studied in the MAD phase of the study.
Participants received single Compound 5 doses of 120, 160, 240, 320, 480, and 640 mg. A total of 60 participants were enrolled across the dosing groups, with 48 participants who received Compound 5 available for PK analyses. Despite the substantially higher dosages, PK parameters in the dosing groups were consistent with those observed at lower doses in Example B12.

[2] = Safety at the higher doses of Examples B14 and B15; assay type: in vivo, human; settings: healthy participants, higher doses of Examples B14 and B15 (80-640 mg)
Description: as §2
This study was designed as a randomized, double-blind, placebo-controlled study in 48 healthy participants conducted in 2 parts. Part 1 has completed clinical conduct, and Part 2 is ongoing. In Part 1, 24 participants were randomized 1:1:1 to receive Compound 5 80 mg QD, Compound 5 160 mg QD, or placebo QD. A safety review committee reviewed the safety and PK data from Part 1 and recommended doses for Part 2. […] BALF samples were assessed for TGF-β receptor kinase activity (pSMAD2/SMAD2) in pelleted cells (primarily alveolar macrophages) and additional cell material was used to measure TGF-β signaling pathway-related gene expression levels. […] Safety was monitored via open-ended AE inquiry and clinical chemistry, hematology, vital sign, and 12-lead ECG parameters.

Question: What does the source list for `COCCN(CCCCc1ccc2c(n1)NCCC2)CC[C@H](Nc1ncnc2ccccc12)C(=O)O` [Compound 5, (S)-4-((2-methoxyethyl) (4-(5,6,7,8-tetrahydro-1,8-naphthyridin-2-yl)butyl)amino)-2-(quinazolin-4-ylamino) butanoic acid]?
Answer: PSMAD3/SMAD3 in cells isolated from BALF (healthy mice): approximately 50 % of the untreated levels; pSMAD3 levels in lung and BALF cells vs. plasma drug exposure (bleomycin-treated mice; 14 days after bleomycin, […] dose PO BID 1.5 days, FIGS. 4J, 4K): close inverse relationship; accumulated new collagen (percentage of lung collagen containing 2H-labeled hydroxyproline) (bleomycin-treated mice; bleomycin mice, 1× and 5× (p<0.01 vs vehicle), FIG. 4D): dose-dependent reduction; total pulmonary collagen, as measured by μg of hydroxyproline (bleomycin-treated mice; bleomycin mice, 1×, […], 5× (p<0.05 vs vehicle), FIG. 4E): reduction in total pulmonary collagen; percent total collagen area in second harmonic generation lung images (bleomycin-treated mice; bleomycin mice, 1×, […], 5×, FIG. 4I): substantial, statistically significant dose-dependent reduction; pSMAD3 levels in the lung (SMAD3 phosphorylation) (bleomycin-treated mice; bleomycin mice, oral gavage BID 14 days, 1×, […], 5×, FIG. 4C): approximately 50 % of the untreated levels; lung Col1a1 expression (lung Col1a1 expression): substantial, statistically significant (p<0.01 vs vehicle) decrease; half-life ([1]; single dose 120 mg): 37 h; half-life ([1]; single dose 160 mg): 36.5 h; half-life ([1]; single dose 240 mg): 46 h; half-life ([1]; single dose 320 mg): 40.7 h; half-life ([1]; single dose 480 mg): 43.7 h; half-life ([1]; single dose 640 mg): 42.3 h; Cmax ([1]; single dose 120 mg): 2710 ng/mL; AUC(0-t) ([1]; single dose 120 mg): 27400 ng·h/mL; Tmax ([1]; single dose 120 mg): 4 h; Cmax ([1]; single dose 160 mg): 2480 ng/mL; AUC(0-t) ([1]; single dose 160 mg): 28500 ng·h/mL; Tmax ([1]; single dose 160 mg): 1.95 h; Cmax ([1]; single dose 240 mg): 4390 ng/mL; AUC(0-t) ([1]; single dose 240 mg): 48000 ng·h/mL; Tmax ([1]; single dose 240 mg): 3.5 h; Cmax ([1]; single dose 320 mg): 6390 ng/mL; AUC(0-t) ([1]; single dose 320 mg): 71200 ng·h/mL; Tmax ([1]; single dose 320 mg): 4 h; Cmax ([1]; single dose 480 mg): 5080 ng/mL; AUC(0-t) ([1]; single dose 480 mg): 57300 ng·h/mL; Tmax ([1]; single dose 480 mg): 3 h; Cmax ([1]; single dose 640 mg): 6900 ng/mL; AUC(0-t) ([1]; single dose 640 mg): 88300 ng·h/mL; Tmax ([1]; single dose 640 mg): 3.5 h; dose proportionality of total and peak exposures ([1]; single doses over the range of 120 to 640 mg): slightly less than dose-proportional manner; dose proportionality of total (AUC0-24) and peak (Cmax) exposure ([1]; single oral doses of 120 to 320 mg): increased in a dose-proportional manner; adverse effects [2]: no significant adverse effects
